According to ChEMBL document CHEMBL1148520, “5-(Dimethoxymethyl)-2'-deoxyuridine: a novel gem diether nucleoside with anti-orthopoxvirus activity” (J Med Chem, 2006):
pEC50: −log10 of the molar value.

The compounds below were run on Vaccinia virus (assay: Antiviral activity against vaccinia virus Copenhagen measured as cytopathogenicity in HFF cells). Details: Orthopoxvirus vaccinia.
Format: functional, organism-based
For `O=c1[nH]c(=O)n(C2CC(O)[C@@H](CO)O2)cc1C1OCCCO1` (single isomer, unassigned), the pEC50 was < 3.52. `COC(OC)c1cn(C2C[C@H](OC(C)=O)[C@@H](COC(C)=O)O2)c(=O)[nH]c1=O` (some centres not stated) was tested, and the pEC50 was 3.53. For `O=c1[nH]c(=O)n(C2CC(O)[C@@H](CO)O2)cc1C1OCCO1` (single isomer, unassigned), the pEC50 was < 3.52. `CC(=O)OC[C@H]1OC(n2cc(C3OCCCO3)c(=O)[nH]c2=O)C[C@@H]1OC(C)=O` (some centres not stated) was tested, and the pEC50 was < 3.52. For `CC(=O)OC[C@H]1OC(n2cc(C3OCCO3)c(=O)[nH]c2=O)C[C@@H]1OC(C)=O` (some centres not stated), the pEC50 was < 3.52. For `CC(=O)OC[C@H]1OC(n2cc(C=O)c(=O)[nH]c2=O)C[C@@H]1OC(C)=O` (some centres not stated), the pEC50 was < 3.52. In the case of `COC(OC)c1cnc(O)nc1O`, the pEC50 was < 3.52. `CCOC(OCC)c1cn(C2C[C@H](OC(C)=O)[C@@H](COC(C)=O)O2)c(=O)[nH]c1=O` (some centres not stated) gave a pEC50 of 4.42. `COC(OC)c1cn(C2C[C@H](O)[C@@H](CO)O2)c(=O)[nH]c1=O` (some centres not stated) showed a pEC50 of 5.08. For `Nc1ccn(C[C@@H](CO)OCP(=O)(O)O)c(=O)n1` [CIDOFOVIR], the pEC50 was 5.16. For `CCOC(OCC)c1cn(C2C[C@H](O)[C@@H](CO)O2)c(=O)[nH]c1=O` (some centres not stated), the pEC50 was < 4.22. For `O=Cc1cn([C@H]2C[C@H](O)[C@@H](CO)O2)c(=O)[nH]c1=O`, the pEC50 was < 3.52.
